Reference: ChEMBL document CHEMBL5241080, “Quinoline anticancer agents active on DNA and DNA-interacting proteins: From classical to emerging therapeutic targets” (Eur J Med Chem, 2021)
One block for each molecule: values may come before it.

Key:
U-937 = assay: Antiproliferative activity against human U-937 cells assessed as reduction cell viability incubated for 48 hrs by MTT assay; format: functional, cell-based; conditions: U-937, 48 h
BT-483 = assay: Antiproliferative activity against human BT-483 cells; format: functional, cell-based
A549 [1] = assay: Antiproliferative activity against human A549 cells assessed as reduction in cell viability incubated for 48 hrs by MTT assay; format: functional, cell-based; conditions: A549, 48 h
DNA topoisomerase 1 = target: T1, DNA topoisomerase 1 (Homo sapiens, UniProt P11387); assay: Inhibition of topoisomerase 1 (unknown origin)
T1 sequence (P11387 whole entry): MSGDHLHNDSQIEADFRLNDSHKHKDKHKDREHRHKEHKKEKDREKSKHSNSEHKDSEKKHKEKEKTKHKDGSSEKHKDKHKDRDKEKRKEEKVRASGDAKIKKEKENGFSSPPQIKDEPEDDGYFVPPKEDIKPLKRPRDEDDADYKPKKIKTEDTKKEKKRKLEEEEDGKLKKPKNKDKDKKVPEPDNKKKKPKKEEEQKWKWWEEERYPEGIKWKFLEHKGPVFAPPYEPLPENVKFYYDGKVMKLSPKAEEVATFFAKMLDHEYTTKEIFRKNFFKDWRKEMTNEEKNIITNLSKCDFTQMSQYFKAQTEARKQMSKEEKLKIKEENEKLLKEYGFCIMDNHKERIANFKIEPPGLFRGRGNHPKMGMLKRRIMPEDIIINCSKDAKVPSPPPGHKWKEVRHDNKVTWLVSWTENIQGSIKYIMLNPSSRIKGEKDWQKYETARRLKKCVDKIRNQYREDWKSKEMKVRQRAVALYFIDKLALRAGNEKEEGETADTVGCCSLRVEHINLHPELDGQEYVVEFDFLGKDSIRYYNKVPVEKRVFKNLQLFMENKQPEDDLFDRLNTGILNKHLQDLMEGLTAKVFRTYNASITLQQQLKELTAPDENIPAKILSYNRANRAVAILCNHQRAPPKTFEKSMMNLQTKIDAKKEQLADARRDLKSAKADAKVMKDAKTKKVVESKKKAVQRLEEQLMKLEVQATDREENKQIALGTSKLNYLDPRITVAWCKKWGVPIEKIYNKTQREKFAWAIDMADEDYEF

[2] = Oral bioavailability CD-1 mouse at 30 mg/kg; format: ADME, organism-based; conditions: in vivo
[3] = Inhibition of topoisomerase 2 (unknown origin); parameters: species or system Homo sapiens
HeLa [4] = assay: Antiproliferative activity against human HeLa cells assessed as reduction in cell viability incubated for 48 hrs by MTT assay; format: functional, cell-based
HCT-116 [5] = assay: Antiproliferative activity against human HCT-116 cells; format: functional, cell-based
HT-1080 = assay: Antiproliferative activity against human HT-1080 cells assessed as reduction cell viability incubated for 48 hrs by MTT assay; format: functional, cell-based; conditions: HT-1080, 48 h
M14 = assay: Antiproliferative activity against human M14 cells assessed as reduction cell viability incubated for 48 hrs by MTT assay; format: functional, cell-based; conditions: M14, 48 h
[6] = target: T2, DNA (cytosine-5)-methyltransferase 1 (Homo sapiens, UniProt P26358); assay: Inhibition of his-tagged human DNMT1 by scintillation counter analysis
HCT-116 [7] = assay: Antiproliferative activity against human HCT-116 cells assessed as reduction cell viability incubated for 48 hrs by MTT assay; format: functional, cell-based; conditions: HCT-116, 48 h
HL-60 = assay: Antiproliferative activity against human HL-60 cells assessed as reduction cell viability incubated for 48 hrs by MTT assay; format: functional, cell-based; conditions: HL-60, 48 h
MCF7 [8] = assay: Antiproliferative activity against human MCF7 cells assessed as reduction cell viability incubated for 48 hrs by MTT assay; format: functional, cell-based; conditions: MCF7, 48 h
HeLa [9] = assay: Antiproliferative activity against human HeLa cells assessed as reduction cell viability incubated for 48 hrs by MTT assay; format: functional, cell-based
[10] = target: T3, DNA (cytosine-5)-methyltransferase 3A (Homo sapiens, UniProt Q9Y6K1); assay: Inhibition of C-terminal biotin-labelled human DNMT3A by multilabel plate reader analysis
NCI-H1299 = assay: Antiproliferative activity against human NCI-H1299 cells assessed as reduction cell viability incubated for 48 hrs by MTT assay; format: functional, cell-based; conditions: NCI-H1299, 48 h
[11] = Antiproliferative activity against mouse P338 cells; format: functional, cell-based
KB = assay: Antiproliferative activity against human KB cells; format: functional, cell-based
[12] = target: Protein deacetylase HDAC6 (Homo sapiens, UniProt Q9UBN7); assay: Inhibition of HDAC6 (unknown origin)
A549 [13] = assay: Antiproliferative activity against human A549 cells; format: functional, cell-based
PC-3 [14] = assay: Antiproliferative activity against human PC-3 cells; format: functional, cell-based
Raji = assay: Antiproliferative activity against human Raji cells assessed as reduction cell viability incubated for 48 hrs by MTT assay; format: functional, cell-based
[15] = Antiproliferative activity against human RPMI cells assessed as reduction cell viability incubated for 48 hrs by MTT assay; format: functional, cell-based
[16] = target: T2, DNA (cytosine-5)-methyltransferase 1; assay: Inhibition of human recombinant full-length N-terminal GST tagged DNMT1 (2 to 1632 residues) expressed in Sf9 insect cells using poly(dI-dC) as substrate by hotspot assay
MDA-MB-231 = assay: Antiproliferative activity against human MDA-MB-231 cells assessed as reduction cell viability incubated for 48 hrs by MTT assay; format: functional, cell-based; conditions: MDA-MB-231, 48 h
[17] = target: T3, DNA (cytosine-5)-methyltransferase 3A; assay: Inhibition of human recombinant DNMT3A (214 to 912 residues)expressed in Sf9 insect cells using lambda DNA as substrate by scintillation/filter plate assay
PC-3 [18] = assay: Antiproliferative activity against human PC-3 cells assessed as reduction cell viability incubated for 48 hrs by MTT assay; format: functional, cell-based; conditions: PC-3, 48 h
MCF7 [19] = assay: Antiproliferative activity against human MCF7 cells; format: functional, cell-based
Histone deacetylase 8 = Histone deacetylase 8 (Homo sapiens, UniProt Q9BY41); assay: Inhibition of HDAC8 (unknown origin)
[20] = Antiproliferative activity against human MED-MEB-8A cells; format: functional, cell-based
B16-F10 = assay: Antiproliferative activity against mouse B16-F10 cells; format: functional, cell-based
HeLa [21] = assay: Antiproliferative activity against human HeLa cells; format: functional, cell-based
Jurkat E6.1 = assay: Antiproliferative activity against human Jurkat E6.1 cells; format: functional, cell-based
U-251 = assay: Antiproliferative activity against human U-251 cells; format: functional, cell-based
Histone deacetylase = assay: Inhibition of HDAC (unknown origin); format: protein assay, Homo sapiens
NCI-H460 = assay: Antiproliferative activity against human NCI-H460 cells; format: functional, cell-based
HepG2 = assay: Antiproliferative activity against human HepG2 cells; format: functional, cell-based
CFPAC-1 = assay: Antiproliferative activity against human CFPAC-1 cells; format: functional, cell-based
HPAC = assay: Antiproliferative activity against human HPAC cells; format: functional, cell-based
[22] = target: Histone-lysine N-methyltransferase SMYD3 (Homo sapiens, UniProt Q9H7B4); assay: Inhibition of SMYD3 (unknown origin)
SK-MEL-28 = assay: Antiproliferative activity against human SK-MEL-28 cells; format: functional, cell-based
SK-MEL-5 = assay: Antiproliferative activity against human SK-MEL-5 cells; format: functional, cell-based
[23] = Antiproliferative activity against human A375P cells; format: functional, cell-based
HeLa [24] = assay: Antiproliferative activity against human HeLa cells incubated for 24 hrs by WST-1 assay; format: functional, cell-based

T3 sequence (Q9Y6K1 whole entry, looked up): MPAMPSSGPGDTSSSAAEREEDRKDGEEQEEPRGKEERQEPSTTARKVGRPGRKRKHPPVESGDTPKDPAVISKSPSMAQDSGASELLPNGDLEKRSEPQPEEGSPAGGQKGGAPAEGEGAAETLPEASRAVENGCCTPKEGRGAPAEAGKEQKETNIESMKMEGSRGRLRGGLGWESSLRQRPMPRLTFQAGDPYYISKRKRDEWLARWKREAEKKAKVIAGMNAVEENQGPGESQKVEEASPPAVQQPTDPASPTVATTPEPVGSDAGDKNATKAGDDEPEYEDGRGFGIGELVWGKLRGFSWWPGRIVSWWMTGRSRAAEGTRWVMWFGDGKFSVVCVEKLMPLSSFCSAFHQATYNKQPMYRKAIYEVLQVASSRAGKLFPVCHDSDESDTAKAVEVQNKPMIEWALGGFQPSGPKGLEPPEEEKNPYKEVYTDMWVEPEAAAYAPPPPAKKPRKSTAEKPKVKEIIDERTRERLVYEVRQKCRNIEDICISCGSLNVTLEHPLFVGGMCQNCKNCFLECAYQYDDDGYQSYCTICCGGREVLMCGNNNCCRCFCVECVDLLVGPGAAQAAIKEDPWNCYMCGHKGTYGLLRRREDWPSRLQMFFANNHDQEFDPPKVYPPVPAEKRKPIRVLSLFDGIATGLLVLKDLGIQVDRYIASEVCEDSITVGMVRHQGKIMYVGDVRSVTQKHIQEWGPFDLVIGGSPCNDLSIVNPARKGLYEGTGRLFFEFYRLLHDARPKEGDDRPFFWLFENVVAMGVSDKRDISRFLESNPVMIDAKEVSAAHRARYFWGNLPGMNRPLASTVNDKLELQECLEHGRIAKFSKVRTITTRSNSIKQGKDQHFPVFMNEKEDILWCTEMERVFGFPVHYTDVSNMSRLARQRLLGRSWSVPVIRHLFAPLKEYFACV
T2 sequence (P26358 whole entry): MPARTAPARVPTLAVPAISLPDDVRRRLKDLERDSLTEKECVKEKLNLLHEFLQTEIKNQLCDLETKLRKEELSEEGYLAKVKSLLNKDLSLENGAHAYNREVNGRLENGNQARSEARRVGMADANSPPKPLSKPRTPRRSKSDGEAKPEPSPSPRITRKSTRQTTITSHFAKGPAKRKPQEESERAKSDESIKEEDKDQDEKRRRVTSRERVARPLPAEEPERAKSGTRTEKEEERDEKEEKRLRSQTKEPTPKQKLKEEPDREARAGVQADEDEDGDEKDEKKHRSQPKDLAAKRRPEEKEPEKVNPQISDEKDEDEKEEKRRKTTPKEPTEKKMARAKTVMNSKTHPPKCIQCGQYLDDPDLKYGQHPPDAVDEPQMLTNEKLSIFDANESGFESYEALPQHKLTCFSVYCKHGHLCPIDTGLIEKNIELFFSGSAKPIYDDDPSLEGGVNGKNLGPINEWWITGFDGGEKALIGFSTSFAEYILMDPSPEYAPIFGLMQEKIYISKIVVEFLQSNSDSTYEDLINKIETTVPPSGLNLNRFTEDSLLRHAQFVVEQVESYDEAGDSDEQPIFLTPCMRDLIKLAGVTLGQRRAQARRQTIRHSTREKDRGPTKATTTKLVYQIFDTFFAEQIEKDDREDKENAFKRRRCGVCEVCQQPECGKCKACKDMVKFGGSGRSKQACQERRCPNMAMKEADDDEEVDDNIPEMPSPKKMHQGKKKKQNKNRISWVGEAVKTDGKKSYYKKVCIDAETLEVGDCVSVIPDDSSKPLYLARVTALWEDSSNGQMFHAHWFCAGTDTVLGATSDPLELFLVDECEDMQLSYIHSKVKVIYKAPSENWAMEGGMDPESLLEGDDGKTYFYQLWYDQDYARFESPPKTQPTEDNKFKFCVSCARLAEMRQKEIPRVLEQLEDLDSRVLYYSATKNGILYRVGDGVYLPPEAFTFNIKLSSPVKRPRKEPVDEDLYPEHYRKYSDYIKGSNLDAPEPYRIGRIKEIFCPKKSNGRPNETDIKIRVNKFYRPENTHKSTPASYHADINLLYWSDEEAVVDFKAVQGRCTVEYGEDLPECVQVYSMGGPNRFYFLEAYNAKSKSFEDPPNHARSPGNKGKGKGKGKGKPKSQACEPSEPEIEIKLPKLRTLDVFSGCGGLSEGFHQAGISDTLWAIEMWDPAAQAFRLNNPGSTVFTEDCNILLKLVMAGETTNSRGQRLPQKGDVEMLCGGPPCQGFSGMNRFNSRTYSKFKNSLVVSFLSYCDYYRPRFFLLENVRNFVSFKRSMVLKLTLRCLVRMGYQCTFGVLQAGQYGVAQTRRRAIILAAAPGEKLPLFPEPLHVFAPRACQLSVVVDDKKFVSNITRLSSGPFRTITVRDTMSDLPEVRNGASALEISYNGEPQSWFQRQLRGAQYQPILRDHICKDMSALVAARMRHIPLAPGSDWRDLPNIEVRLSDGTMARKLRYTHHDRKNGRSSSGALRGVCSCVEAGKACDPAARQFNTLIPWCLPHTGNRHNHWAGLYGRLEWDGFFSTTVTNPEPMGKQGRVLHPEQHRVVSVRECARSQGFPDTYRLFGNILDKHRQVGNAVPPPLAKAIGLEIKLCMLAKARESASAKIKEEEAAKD
Chain of Histone-lysine N-methyltransferase SMYD3 (Q9H7B4 whole entry): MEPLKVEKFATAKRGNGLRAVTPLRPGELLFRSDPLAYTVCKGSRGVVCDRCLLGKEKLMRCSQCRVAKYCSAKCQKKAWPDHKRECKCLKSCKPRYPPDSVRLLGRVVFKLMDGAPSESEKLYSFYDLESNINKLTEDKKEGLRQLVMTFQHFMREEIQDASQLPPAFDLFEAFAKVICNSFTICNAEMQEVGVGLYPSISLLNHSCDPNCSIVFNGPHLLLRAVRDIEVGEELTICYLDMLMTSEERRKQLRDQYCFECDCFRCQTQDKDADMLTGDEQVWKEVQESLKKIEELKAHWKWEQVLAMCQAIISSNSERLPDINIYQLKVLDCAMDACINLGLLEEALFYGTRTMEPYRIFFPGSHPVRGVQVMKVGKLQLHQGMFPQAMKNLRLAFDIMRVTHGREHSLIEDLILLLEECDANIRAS
Chain of Histone deacetylase 8 (Q9BY41 whole entry): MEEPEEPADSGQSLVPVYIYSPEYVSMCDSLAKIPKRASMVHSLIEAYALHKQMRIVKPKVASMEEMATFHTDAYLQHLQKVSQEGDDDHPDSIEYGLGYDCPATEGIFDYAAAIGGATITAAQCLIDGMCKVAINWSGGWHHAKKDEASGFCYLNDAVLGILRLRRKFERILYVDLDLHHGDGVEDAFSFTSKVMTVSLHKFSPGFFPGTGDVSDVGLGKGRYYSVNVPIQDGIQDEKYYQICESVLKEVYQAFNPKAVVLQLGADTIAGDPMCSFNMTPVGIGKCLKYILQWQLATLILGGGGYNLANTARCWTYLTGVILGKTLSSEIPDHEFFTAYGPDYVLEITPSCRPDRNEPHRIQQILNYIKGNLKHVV
Chain of Protein deacetylase HDAC6 (Q9UBN7 whole entry): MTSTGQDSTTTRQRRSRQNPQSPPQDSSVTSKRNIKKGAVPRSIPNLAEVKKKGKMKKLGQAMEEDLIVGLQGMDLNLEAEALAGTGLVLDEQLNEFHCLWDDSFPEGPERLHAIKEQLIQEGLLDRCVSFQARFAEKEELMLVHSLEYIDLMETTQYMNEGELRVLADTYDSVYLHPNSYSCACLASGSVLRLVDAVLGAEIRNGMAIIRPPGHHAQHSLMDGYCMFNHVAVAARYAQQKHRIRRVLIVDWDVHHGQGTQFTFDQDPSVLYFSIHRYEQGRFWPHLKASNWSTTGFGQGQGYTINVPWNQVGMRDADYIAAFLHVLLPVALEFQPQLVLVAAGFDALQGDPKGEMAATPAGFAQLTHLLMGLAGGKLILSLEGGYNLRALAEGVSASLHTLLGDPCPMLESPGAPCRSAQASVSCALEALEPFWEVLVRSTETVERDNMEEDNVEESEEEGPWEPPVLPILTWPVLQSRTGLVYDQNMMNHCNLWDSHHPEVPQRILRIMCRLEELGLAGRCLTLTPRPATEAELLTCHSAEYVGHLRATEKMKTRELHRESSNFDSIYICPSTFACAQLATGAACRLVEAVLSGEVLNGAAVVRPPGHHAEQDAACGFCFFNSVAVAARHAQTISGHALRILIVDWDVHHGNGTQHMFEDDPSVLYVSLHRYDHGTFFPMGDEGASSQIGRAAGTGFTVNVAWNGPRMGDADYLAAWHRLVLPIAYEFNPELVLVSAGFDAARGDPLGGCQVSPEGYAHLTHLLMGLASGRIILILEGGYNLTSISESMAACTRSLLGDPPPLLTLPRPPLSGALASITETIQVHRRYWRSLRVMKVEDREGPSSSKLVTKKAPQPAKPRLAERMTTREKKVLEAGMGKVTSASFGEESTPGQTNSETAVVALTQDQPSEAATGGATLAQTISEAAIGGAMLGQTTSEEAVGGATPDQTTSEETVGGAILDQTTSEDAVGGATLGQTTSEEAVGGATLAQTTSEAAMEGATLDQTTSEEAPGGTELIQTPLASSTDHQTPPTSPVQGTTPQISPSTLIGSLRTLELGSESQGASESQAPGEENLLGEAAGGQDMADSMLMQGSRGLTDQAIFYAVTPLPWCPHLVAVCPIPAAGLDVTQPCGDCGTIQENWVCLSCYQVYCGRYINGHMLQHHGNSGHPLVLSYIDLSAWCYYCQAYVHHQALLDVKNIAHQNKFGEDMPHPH

Compound: COc1ccc2c(c1)/C(=N\OCCCN(C)C)c1c-2c(N2CCNCC2)nc2ccccc12
IC50 (BT-483): 1100 nM

Compound: CN(C)CCCO/N=C1\c2cc(OCCCN(C)C)ccc2-c2cnc3ccccc3c21
IC50 (A549 [1]): 1110 nM | IC50 (DNA topoisomerase 1): 2630 nM | bioavailability [2]: 39.8% | IC50 [3]: 4950 nM | IC50 (HeLa [4]): 390 nM

Compound: CN(C)CCNc1nc2cc(O)ccc2c2c1C(=O)c1ccccc1-2
IC50 (DNA topoisomerase 1): 2000 nM | IC50 [11]: 1.1 nM | IC50 [3]: 6500 nM | IC50 (KB): 9.6 nM

Compound: O=C(Nc1ccc(NC(=O)c2ccc(Nc3ccnc4ccccc34)cc2)cc1)OCc1ccccc1
IC50 (Raji): 400 nM | IC50 [15]: 2400 nM | IC50 (U-937): 400 nM | IC50 [16]: 67000 nM | IC50 (MDA-MB-231): 900 nM | IC50 [17]: 17000 nM | IC50 (PC-3 [18]): 900 nM

Compound: COc1cc(NC(=O)NOCCCCCC(=O)NO)c2nc(OC)cc(C)c2c1
IC50 (MCF7 [19]): 11400 nM | IC50 (Histone deacetylase 8): 1.74 nM | IC50 [20]: 590 nM | IC50 (B16-F10): 9760 nM | IC50 (HeLa [21]): 11000 nM | IC50 (A549 [13]): 9120 nM | IC50 (Jurkat E6.1): 7190 nM

Compound: CC[C@@]1(O)C(=O)OCc2c1cc1n(c2=O)Cc2c-1nc1cc(F)c(OC)cc1c2C
IC50 (SK-MEL-28): 1.4 nM | IC50 (SK-MEL-5): 2.6 nM | IC50 [23]: 1.9 nM

Now from value to molecule, other results behind:

IC50 (U-937): 1500 nM
Compound: O=C(Nc1cccc(Nc2ccnc3ccccc23)c1)c1cccc(Nc2ccnc3ccccc23)c1

IC90 (HCT-116 [5]): < 10000 nM
Compound: CCN(CC)CCOC(=O)c1ccc2c(c1)c1nc3ccccc3c(OCCN(CC)CC)c1n2CCN(CC)CC

IC50 (HT-1080): 2700 nM | IC50 [6]: 27000 nM | IC50 (HCT-116 [7]): 1500 nM | IC50 (U-937): 700 nM | IC50 (HL-60): 1600 nM | IC50 (MCF7 [8]): 300 nM | IC50 (HeLa [9]): 2000 nM | IC50 [10]: 800 nM | IC50 (NCI-H1299): 5300 nM
Compound: O=C(Nc1ccc(Nc2ccnc3ccccc23)cc1)c1cccc(Nc2ccnc3ccccc23)c1
IC50 (M14): 4700 nM

IC50 [12]: 2.73 nM | IC50 (A549 [13]): 5330 nM | IC50 (PC-3 [14]): 3280 nM
Compound: O=C(NO)c1ccc(CNc2cccc3cccnc23)cc1

IC50 (U-251): 0.6 nM | IC50 (Histone deacetylase): 1.5 nM | IC50 (HCT-116 [5]): 600 nM | IC50 (NCI-H460): 1 nM
Compound: CC1(C)CC(=O)Nc2ccc(C(=O)NCC3CCC(/C=C/C(=O)NO)CC3)cc21 (centres undefined)

IC50 (HepG2): 11000 nM | IC50 (HCT-116 [5]): 11000 nM | IC50 (A549 [13]): 11000 nM | IC50 [22]: 40 nM
Compound: CCCOC(=O)N1CCN(C(=O)c2ccc3c(Cl)c4c(nc3c2)CCC(CCN)C4)CC1 (centres undefined)
IC50 (CFPAC-1): 11000 nM | IC50 (HPAC): 11000 nM

IC50 (Histone deacetylase): 28 nM | IC50 (HeLa [24]): 1800 nM
Compound: C/C(=C\c1ccc(C(=O)NO)cc1)CNc1cnc2c(Br)cccc2c1
